Measurements published in ChEMBL document CHEMBL3045529, “A rational design, synthesis, characterization, and antihypertensive activities of some new substituted benzimidazoles” (2013).

The compounds below were run on Cavia porcellus (assay: Antihypertensive activity in Cavia porcellus (guinea pig) assessed as decrease in systolic blood pressure at 3 mg/kg, iv relative to control).
Format: functional, Artery

Going from `CCCCc1nc2cc(N)ccc2n1Cc1ccc(-c2ccccc2-c2nnn[nH]2)cc1` to `CCCCc1nc2cc(NC)ccc2n1Cc1ccc(-c2ccccc2-c2nnn[nH]2)cc1`, the Activity falls from 19 mmHg to 12 mmHg.

First: CCCCc1nc2cc(NC(C)=O)ccc2n1Cc1ccc(-c2ccccc2-c2nnn[nH]2)cc1
Second: CCCCc1nc2cc(NCC)ccc2n1Cc1ccc(-c2ccccc2-c2nnn[nH]2)cc1
The Activity of the first is lower: 22 mmHg for the first, 29 mmHg for the second.

Compared with `CCCC/C=N/c1ccc2c(c1)nc(CCCC)n2Cc1ccc(-c2ccccc2-c2nnn[nH]2)cc1`, `CCCCC/C=N/c1ccc2c(c1)nc(CCCC)n2Cc1ccc(-c2ccccc2-c2nnn[nH]2)cc1` is lower in Activity: 27 mmHg for the first, 25 mmHg for the second.

Going from `CCCCc1nc2cc(NCc3ccccc3)ccc2n1Cc1ccc(-c2ccccc2-c2nnn[nH]2)cc1` to `CCCCc1nc2cc(NC(=O)c3ccccc3)ccc2n1Cc1ccc(-c2ccccc2-c2nnn[nH]2)cc1`, the Activity falls from 31 mmHg to 28 mmHg.

First: CCCCc1nc2cc(NCCC)ccc2n1Cc1ccc(-c2ccccc2-c2nnn[nH]2)cc1
Second: CCCCNc1ccc2c(c1)nc(CCCC)n2Cc1ccc(-c2ccccc2-c2nnn[nH]2)cc1
The Activity of the first is higher: 32 mmHg for the first, 31 mmHg for the second.

Compared with `CCCCc1nc(Cl)c(CO)n1Cc1ccc(-c2ccccc2-c2nnn[nH]2)cc1` [LOSARTAN], `CCCCc1nc2cc([N+](=O)[O-])ccc2n1Cc1ccc(-c2ccccc2-c2nnn[nH]2)cc1` is lower in Activity: 34 mmHg for the first, 15 mmHg for the second.

Compared with `CCC/C=N/c1ccc2c(c1)nc(CCCC)n2Cc1ccc(-c2ccccc2-c2nnn[nH]2)cc1`, `CC/C=N/c1ccc2c(c1)nc(CCCC)n2Cc1ccc(-c2ccccc2-c2nnn[nH]2)cc1` is higher in Activity: 17 mmHg for the first, 18 mmHg for the second.

Going from `C/C=N/c1ccc2c(c1)nc(CCCC)n2Cc1ccc(-c2ccccc2-c2nnn[nH]2)cc1` to `CCCCc1nc2cc(N(C)C)ccc2n1Cc1ccc(-c2ccccc2-c2nnn[nH]2)cc1`, the Activity rises from 27 mmHg to 29 mmHg.

`CCCCc1nc2cc(N(CC)CC)ccc2n1Cc1ccc(-c2ccccc2-c2nnn[nH]2)cc1` showed an Activity of 33 mmHg.
